# Data: a melting point compilation (Tetko et al.; mined from patent text by program, amines drawn as free bases though some values may be those of a salt)
row,melting point,Compound
1,95 to 97 °C,COc1ccc(Cn2nc(CO)c3ccccc32)cc1
2,188 to 190 °C,O/N=C(\CCN1CCN(c2ccccn2)CC1)c1ccc(Cl)cc1
3,79 to 80 °C,COC(=S)c1ccncc1Cc1ccccc1
4,153 to 155 °C,Cc1sc(-c2ccc(OC(F)(F)F)cc2)cc1-c1nc(-c2c(F)cccc2Cl)nn1C
5,120 °C,COc1ccc(NC(C)=O)cc1F
6,225 to 226 °C,CC1(C)CCc2c(N3CCSCC3)nc3sc4c(NCc5ccccn5)ncnc4c3c2C1
7,231 to 233 °C,COc1cc(Nc2c(C#N)cnc3sc(I)cc23)c(Cl)cc1Cl
8,167 to 168 °C,CCc1cccc(C(O)CC)c1NC(=O)CC1c2ccccc2Oc2ccccc21 (stereo not drawn)
9,192 °C,O=C(O)CCC(=O)Nc1ccc(C(=O)N2CCCCc3ccccc32)cc1
10,124 to 128 °C,Cc1cc2c([C@@H]3C[C@H]3CNC(=O)C3CC3)cccn2n1 (relative stereo)
11,49 to 50 °C,C#CCOC(=O)c1c(F)cccc1Oc1nc(OC)cc(OC)n1
12,192 to 195 °C,ClCCCn1c2ccccc2c2cc(-c3nc(-c4ccccc4)no3)ncc21
13,117 to 119 °C,CCN(CC)c1ccc2c(c1)Oc1cc(OC)c(N(c3ccccc3)c3ccccc3)cc1C2c1ccccc1C(=O)OC (stereo not drawn)
14,90 to 90.5 °C,CC(=O)Oc1cc(/C=C/c2ccccc2)cc(OC(C)=O)c1
15,133 to 135 °C,CCC(CC)c1ccc(Cl)c2nc3n(c12)CCCCN3c1ccc(Cl)cc1
16,140 to 142 °C,O=C1CCC(=O)N1Cc1cccc(Nc2n[nH]c3ncnc(Nc4cccc(Cl)c4)c23)c1
17,185 to 186 °C,COc1cc(C(C)C)c(NC(=O)CN2CCN(CCSc3nc4cccc(C(C)=O)c4o3)CC2)c(C(C)C)c1
18,206 to 209 °C,CC(C)c1noc(C2CCN(c3ccc4oc(-c5ccc(S(C)(=O)=O)cc5F)nc4c3)CC2)n1
19,111 °C,CNc1nc(N)nc2c1ncn2C1CC(F)C(CO)O1 (stereo not drawn)
20,178 to 179 °C,CC(=O)Oc1ccc(-c2cnc(C)[nH]c2=O)cc1OC(C)=O
21,120 to 121 °C,O=C(Nc1ccccc1)N(Cc1ccc(F)cc1)C1CCCC1
22,89 to 91 °C,Cc1cn([C@H]2CC[C@H](CC(=O)O)C[C@@H]2NC(=O)OC(C)(C)C)c(=O)n(COCc2ccccc2)c1=O
23,93 to 95 °C,C[C@@H]1[C@H](c2ccccc2)OC(=O)N1C(=O)CCC(F)(F)F
24,62.5 to 63.5 °C,COC(=O)CCCCCCC1=CCC(O)C1=O (stereo not drawn)

row,melting point,Compound
1,178 to 181 °C,Cc1nc(N2CCN(CCCC(F)(F)F)C2=O)sc1C(=O)NCc1ccncc1
2,120 to 125 °C,C=C(C)C=CCC(C)C1CCC2(C)C1(C)CCC1C3(C)CCC(OC(C)=O)CC3CCC12C (stereo not drawn)
3,150 °C,CN(C)C(=O)C1(N2CCCC2)CCNCC1
4,144 to 145 °C,COc1cc(C=CC=O)ccc1OCc1coc(-c2ccccc2)n1
5,129 to 131 °C,CNC(=O)N(O)Cc1ccoc1
6,145 to 175 °C,O=c1cc(O)c2ccc(OCC(O)COc3ccccc3)cc2o1 (stereo not drawn)
7,220 to 221 °C,CS(=O)(=O)N(c1ccc(CN2N=C(c3ccc(Cl)cc3)c3ccccc3-n3cnnc32)cc1)S(C)(=O)=O
8,132 to 137 °C,CC1(C)SC(CCCc2ccc(C(=O)O)cc2)N(CCC2(O)CCCCC2)C1=O (stereo not drawn)
9,214 °C,O=C(NC(=O)c1c(F)cccc1F)Nc1ccc(F)c(C(F)(F)F)c1Cl
10,203 to 204 °C,CC(C)(C(=O)OCC(=O)c1ccccc1)n1c(=O)[nH]c2cc(Cl)ccc2c1=O
11,95 to 98 °C,COC(=O)C[C@H](O)C[C@H](O)CCc1c(-c2ccc(F)cc2)c(-c2ccc(F)cc2)c(C(=O)Nc2cccc(C(=O)N(C)C)c2)n1C(C)C
12,204 to 206 °C,COc1cc(NC(=O)Nc2cnc3c(C)cc(C)cc3c2-c2ccccc2Cl)cc(OC)c1OC
13,147 to 149 °C,O=C(O)c1ccccc1Oc1ccccc1O
14,95 to 96 °C,CCOC(=O)c1cn(Cc2ccccn2)nc1S(=O)(=O)NC(=O)Nc1nc(OC)cc(OC)n1
15,109 to 111 °C,CCN1c2ncc(CCc3ccncc3)cc2C(=O)N(C)c2ccc(F)nc21
16,124 to 125 °C,COc1ncnc2c1ncn2[C@H](C)[C@](O)(Cn1cncn1)c1ccc(F)cc1F
17,149 to 151 °C,Cc1oc(-c2ccc3ccccc3c2)nc1COc1ccc(CCCC#N)cc1
18,68 to 69 °C,CCOC(=O)C=Cc1cc(OC)c(OCc2ccccc2)c(OC)c1
19,175 to 177 °C,CC1(C)CC(=O)c2c(SCCO)sc(-c3ccccn3)c2C1
20,124 to 127 °C,COc1ccc(C(C)=O)c2cccc(S(=O)(=O)N(C)C)c12
21,176 to 178 °C,Cc1cc(Oc2ccc(NC(=O)N(C)C)cc2)nc(Cl)n1
22,160 to 162 °C,Clc1cccc2c1Nc1ccccc1N=C2N1CCN(Cc2ccc3c(c2)OCO3)CC1
23,58 °C,Cc1csc(C(=O)OC(C)C)c1S(=O)(=O)Cl
24,111 to 113 °C,Clc1ccc(C(Cn2ccnc2)SCCC=Cc2ccccc2)c(Cl)c1 (stereo not drawn)

row,melting point,Compound
1,68 to 70 °C,CS(=O)(=O)CCCCC(Cc1ccccc1)S(=O)(=O)c1ccc(Cl)cc1 (stereo not drawn)
2,132 °C,CCCCCCCCCCCCCCC[C@@H](O)[C@@H](NCc1ccccc1)C(=O)O
3,288 to 290 °C,Oc1ccc2cc(-c3nc4cc(O)ccc4o3)ccc2c1
4,80 to 83 °C,CCCCOc1ccc(CC(=O)N[C@@H](C(=O)OCc2ccccc2)[C@@H](C)O)cc1
5,359 to 363 °C,O=c1[nH]c2ncc(-c3ccc4cc[nH]c4c3)nc2n1CC1CCCCC1
6,54 to 55 °C,CC1=CC(C)(C)OC1=O
7,> 300 °C,O=c1c(Cl)cn(-c2cc3[nH]c(=O)c(=O)[nH]c3cc2[N+](=O)[O-])cc1Cl
8,136 to 138 °C,Cc1c(C#Cc2ccc(C(F)(F)F)cc2)ccc(N)c1C#N
9,198 to 201 °C,CS(=O)(=O)c1ccc(C2=C(c3ccc(-c4cccs4)cc3)C(=O)OC2)cc1
10,223 to 229 °C,O=c1[nH]cccc1-c1ccccc1
11,226 to 228 °C,COC(=O)c1sccc1NC(=S)N1CCN(c2ncnc3cc(OC)c(OC)cc23)CC1
12,216 to 235 °C,COc1cc2c(cc1Nc1ncc(Cl)c(N[C@@H]3CCCC[C@H]3NS(C)(=O)=O)n1)CCN(CCS(C)(=O)=O)CC2
13,32 to 34 °C,CN(C)Cc1cc(OCCCO)cs1
14,219 °C,COc1ccccc1C1CSc2ccccc2NC1=O (stereo not drawn)
15,177 to 178 °C,Cc1nc2cc3c(cc2s1)C1(CO3)C(=O)N(Cc2ncc(Cl)n2C)c2ccccc21 (stereo not drawn)
16,146 to 147 °C,CCOC(=O)N/N=C/c1ccc(OC)c(OC2CCCC2)c1
17,65 to 70 °C,CC=C1CCC2C3CCC4CC(O)C(OCC)CC4(C)C3C(N)CC12C (stereo not drawn)
18,197 to 199 °C,O=C(O)c1cc(-c2ccc(OCc3ccccc3)cc2)c(=O)n2ccc3ccsc3c12
19,137 to 139 °C,CC(C(=O)O)c1ccc2onc(-c3ccc(Cl)cc3)c2c1 (stereo not drawn)
20,189 to 190 °C,Cn1nc(-c2sc(C(=O)NCc3ccccn3)nc2-c2ccccc2)ccc1=O
21,190 to 191 °C,CC[C@@]12C[C@@](C)(O)[C@](O)(c3ccccc3)C[C@H]1CCc1cc(OCC(=O)O)ccc12
22,28 to 31 °C,CCCCCCCCCCCCCCCCCCOC(=O)CP(=O)(OCC)OCC
23,259 °C,CC(C)n1cc(-c2nc(C(N)=O)c(N)nc2-c2cccc(F)c2)ccc1=O
24,73 to 75 °C,CCOC(=O)c1cc2ccc(C)c(Cl)c2[nH]1

row,melting point,Compound
1,154 to 155 °C,Cc1nnc(-c2ccc3ncn(-c4ccc(OC(F)F)cc4)c3c2)o1
2,192 to 197 °C,O=c1c(-c2ccccc2)c(Cn2cnc3ccccc32)oc2ccc(Br)cc12
3,106 to 109 °C,COc1ccc(CN(CCN(C)CCCNC(=O)NCCSCc2csc(NC(=N)N)n2)c2ccccn2)cc1
4,95 to 97 °C,CN(C)c1ccc([N+](=O)[O-])c(C(O)c2ccccc2)c1 (stereo not drawn)
5,187 to 188 °C,CCOC(=O)C1=C(C)N(C(C)=O)C(c2csc(C)n2)=NC1c1ccc(C)cc1 (stereo not drawn)
6,44 to 45 °C,O=CCCc1cn(-c2cccnc2)c2ccccc12
7,260 to 262 °C,CC(=O)Nc1cc(C(=O)OC2OC(COC(=O)c3ccccc3)C(OC3OC4COC(c5ccncc5)OC4C(O)C3O)C(O)C2O)ccc1Cl (stereo not drawn)
8,96 to 99 °C,C#CC(C)Oc1cc(Cl)ccc1-n1c(=O)cc(C(F)(F)F)n(C)c1=O (stereo not drawn)
9,69 to 70 °C,Cc1cc(C=O)c(Cl)nc1C
10,145 to 146 °C,CSCc1ccc(NC(=O)/C=C/c2cnn(C)c2-c2ccc(SC)cc2)cc1
11,84.1 to 95.5 °C,COC(=O)c1c(Cc2ccc(C(=O)NC(C)(C)CC(=O)N(C)C)cc2)c(=O)c2ccc(Cl)cc2n1-c1ccccc1
12,155 °C,CC(C)c1ccc(S(=O)(=O)n2c(CCCC(=O)O)cc3nc(Cl)ccc32)cc1
13,110 to 111 °C,COC(=O)c1ccc2c(c1)Sc1cc3c(cc1CC2)CCC3
14,178 to 188 °C,O=[N+]([O-])c1ccc(-n2ccnc2)cc1Sc1cccc2cnccc12
15,149 to 150 °C,CC(C)(C)C1Cn2c(nc3ccccc32)-c2ccccc2O1 (stereo not drawn)
16,128 to 130 °C,Cn1cc(Oc2cc(Cl)cc(Cl)c2)c(=O)c(-c2cccc(C(F)(F)F)c2)c1
17,95 to 96 °C,Cc1sc2ccccc2c1C=O
18,169 °C,O=C(O)CCCCc1cc2nc(Cl)ccc2n1S(=O)(=O)c1ccc2ncsc2c1
19,175 to 176 °C,O=c1ccc(-c2ccc(Cl)cc2)n[nH]1
20,156 to 158 °C,CCCc1ccnc2c(=O)[nH]c(-c3cc(N)ccc3OCC)nc12
21,218 to 220 °C,NC(=O)c1ccc(-c2ccc(Oc3ccc(F)cc3)cc2)[nH]1
22,206 to 207 °C,COc1ccc([N+](=O)[O-])c(Nc2ccccc2O)n1

row,Compound,melting point
1,OC[C@@H]1CC[C@H]2CN(c3ncccn3)CCN2C1 (relative stereo),135 to 136 °C
2,Cc1ccc([PH](=O)c2ccc(C)cc2)cc1,93.7 °C
3,N#Cc1ccc2[nH]cc(C3=CCN(CC4COc5cccnc5O4)CC3)c2c1 (stereo not drawn),165 °C
4,CO[C@]12C[C@@H](CN3CCC(O)(c4cccc(C(F)(F)F)c4)CC3)CN(C)[C@@H]1Cc1c[nH]c3cccc2c13,135 to 140 °C
